Assay results taken from patent publication US10851069B2, “Compositions of crystallized hydrophobic compounds and methods of making and using same” (Massachusetts Institute of Technology, priority 2016, dated 2020).

Assays:
rat islets = assay: Live/dead islet staining of islets co-encapsulated with drug; assay type: cell-based; conditions: amorphous and crystalline forms
Experimental: Male Sprague-Dawley rats from Jackson Laboratories (Bar Harbor, Me.) weighing approximately 300 grams were used for harvesting islets. All rats were anesthetized by a 1:20 xylazine (10 mg/kg) to ketamine (150 mg/kg) injection given intraperitoneally, and the total volume of each injection was 0.4 ml-0.5 ml depending on the weight of rat. Isolation surgeries were performed as described by Lacy and Kostianovsky^2. Briefly, the bile duct was cannulated and the pancreas was distended by an in vivo injection of 0.15% Liberase (Research Grade, Roche) in RPMI 1640 media solution. Rats were sacrificed by cutting the descending aorta and the distended pancreatic organs were removed and held in 50 ml conical tubes on ice until the completion of all surgeries. All tubes were placed in a 37° C. water bath for a 30 min digestion, which was stopped by adding 10-15 ml of cold M199 media with 10% heat-inactivated fetal bovine serum (HIFBS) and lightly shaking. Digested pancreases were washed twice in the same aforementioned M199 media, filtered through a 450 μm sieve, and then suspended in a Histopaque 1077 (Sigma)/M199 media gradient and centrifuged at 1,700 RCF at 4° C. […] Purified islets were hand-counted by aliquot under a light microscope and then washed three times in sterile ix phosphate-buffered saline. […]

[1] = Drug levels in retrieved capsules, IP lavage and plasma in non-human primates (HPLC, LCMS); assay type: in vivo, cynomolgus macaques
Experimental: LC pumps used are Agilent 1290 Infinity Binary pumps with CTC Pal Autosampler. MS is a Sciex API6500 triple quad. Sample Storage Conditions: −80° C. Sample Processing Extraction Volume: 10 μL. Extraction Method: Protein Precipitation. For example: GW2580 plasma concentration analysis: Sample Extraction Procedure: 1. 10 μL of calibration standards, quality controls, blanks and samples were aliquoted into a 96-well plate. 2. 60 μL of IS-SS (internal standard) (100 ng/mL QNZ, carbutamide, chrysin, carbamazepine, glafenine, dexamethasone, glyburide, and d4AEA in acetonitrile) were added to all samples except for double blanks. 60 μL of acetonitrile was then added to double blanks. 3. The plate was covered and samples mixed, followed by centrifugation for 5 minutes at 3000 rpm at 4° C. 4. 50 μL of supernatant was then transferred into a clean 96-well plate using a liquid handler. 5. Samples were diluted with 100 μL of MilliQ water, and the plate was once again covered and mixed for about a minute prior to sample injection onto the LC-MS/MS at 1.00-2,500 ng/mL. LC Conditions: Waters BEH C18, 50×2.1 mm, 1.7 μm. Run temperature: 50° C. Mobile Phase A, 95:5:0.1 (v:v:v) Water:Acetonitrile:Formic Acid (1.2 min). Mobile Phase B, 50:50:0.1 (v:v:v) Methanol:Acetonitrile:Formic Acid (1.3 min). Flow: 0.8 mL/min. Injection Volume: 2 μL. MS Conditions: MS/MS: API-6500. Ionization Method: Electrospray. Positive/Negative Ion: Positive. Resolution: Unit. Source Temperature (° C.): 550. Transitions (m/z): Compound ID: GW2580 367.0/245.1 Da. Int Std ID: QNZ 357.0/197.1 Da. Data Analysis: Acceptance Criteria ‘±20% (±25% at the LLOQ), Regression Type, Linear (1/(x*x)), Accepted Curve Range 1.00-2,500 ng/mL Carryover 0.00%. HPLC
Calibration curves were obtained on an Agilent LC 1100 Series (Agilent Technologies, CA, USA) equipped with binary pump (G1312 Å), auto-sampler (G1313 Å), degasser and photodiode detector (DAD, G1315 Å). Chemstation was used for system control, data processing and data acquisition for LC. Chromatographic separation was achieved by an analytical Waters Atlantis T3 C18 column (5 μm, 4.6×250 mm). The temperature of column and auto-sampler were kept at 20° C.
Stock solution of GW2580 was prepared in dimethyl sulfoxide (DMSO) at a target concentration of 10 mg/ml and appropriate dilutions were made in DMSO to prepare standards (0.25-2500 μg/ml) for calibration curve of GW2580. 10 μl of standard solution was injected and the analytes were eluted by gradient mode using (A) acetonitrile and (B) 0.1% formic acid in water at a constant flow rate of 1 ml/min. The gradient conditions of mobile phase were as follows: 0 min 10% A, 10 min 95% A, 14 min 95% A, 16 min 10% A, 20 min 10% A.

COc1ccc(COc2ccc(Cc3cnc(N)nc3N)cc2OC)cc1 [GW2580, 5-[[3-Methoxy-4-[(4-methoxyphenyl)methoxy]phenyl]methyl]-2,4-pyrimidinediamine]
toxicity to co-encapsulated islets (dead/live imaging) (rat islets): non-toxic | remaining drug extracted from retrieved capsules ([1]; 0.5 mm capsules, IP space, 3 months): little to no drug | remaining drug extracted from retrieved capsules ([1]; 1.5 mm capsules, IP and SC sites, up to 6 months): additional stores | plasma drug concentration ([1]; at the termination of the study): below detection limits | IP space (lavage) drug concentration ([1]; beyond 4 weeks, below detectable limit): < 0.5 ng/mL | concentration at 4 weeks ([1]; cynomolgus monkey, intraperitoneal space lavage fluid, ip, 4 weeks post-implantation): 2 to 3 ng/mL
